Data on 1 substance can be found in patent US9161944B2, “Method for preventing cancer metastasis” (INSERM (INSTITUT NATIONAL DE LA SANTE ET DE LA SANTE ET DE …, priority 2010, dated 2015).

A value given as a limit tells only on which side of the number the result lay.

For one test, the target named is T1, SK1 (Homo sapiens, UniProt Q92952).
T1 construct: expressed in transfected cells; host or cells: HEK293
The test is described as follows: Whole-cell K+ currents in HEK293 cells expressing recombinant SK1. The conditions noted are these: 10 μM, FIG. 9B. Type of test: cell-based. Here is the method:
(§1) FIG. 9. Selectivity effect of JPH1701 on SKCa subtype and on IKCa channels. FIG. 9A) Example of whole-cell K^+ currents recorded in HEK293 cells expressing recombinants SK1, SK2, SK3 and IKCa channels before and after application of 10 μM JPH1701 (upper graphs: SK1 and SK2 respectively, bottom graphs: SK3 and IKCa respectively). Currents were generated by ramp protocol from −100 mV to +60 mV in 500 ms from a constant holding of 0 mV and with a pCa 6. FIG. 9B) Histograms showing the effect of 10 μM JPH1701 on SKCa (SK1, SK2, SK3) and IKCa current amplitudes recorded at 0 mV. […] For each channel (SK1, SK2, SK3 and IKCa) the left column (pale grey) represents the control result and the right column (dark grey) represents the result after JPH1701 application.
(§2) The selectivity of JPH1701 toward the others members of the SKCa/IKCa channels was tested. […] The experimental protocol was similar to the one used in FIG. 8. JPH1701 was tested for membrane potential from +60 mV to −100 mV on 500 msec.

For another test, the target named is PAF receptor (Homo sapiens, UniProt P25105). The test is described as follows: 3H-C16-PAF binding, membrane homogenates of CHO cells. Further details: expressed in transfected cells; host or cells: CHO cells (membrane homogenates). The conditions noted are these: 0.3 and 2 μM, FIG. 11A. Here is the method:
(§3) FIG. 11: Effects of JPH1701 on PAF receptor, PLC and PKCs activities. FIG. 11A) Histogram showing the percentage of control specific binding of 3H-C16-PAF to recombinant PAF receptor obtained from membrane homogenates of CHO cells by 0.3 and 2 μM edelfosine and by 0.3 and 2 μM JPH1701. FIG. 11B) Histogram showing the percentage of control agonist response (% effect i.e: increase of intracellular calcium concentration) of 0.3 and 2 μM edelfosine and JPH1701 on PAF receptor normalized to the response induced by 100 nM C16-PAF. […] FIG. 11C-D) Dose responses curves showing the effect of JPH1701 on PKCs (FIG. 11C, PKCs are: alpha, Beta 1, Beta 2, Gamma, Delta, Epsilon, Zeta, Eta, Theta, Iota) and PhosphoLipase C (PLC) activities (FIG. 11D).

The next test has as its system SKCa channel. The test is described as follows: 125I-apamin binding, membrane homogenates of cerebral cortex. The settings on record: 0.3 and 2 μM, FIG. 8E. Here is the method: FIG. 8: Effect of JPH1701 on SK3 channel activity. […] Results are expressed as the mean±S.E.M. FIG. 8C) Histograms showing the effect of racemic hexadecyloxy-2-O-methyl-sn-glycerol-lactose (JPH 1701 or Ohmline, i.e: JPH1701 in the example) mixture and of both enantiomers (R-JPH1701 and S-JPH1701) on SK3 activity. The percentages of inhibition represent the ratio (SK3 current amplitude and chord conductance (in the presence of 10 μM JPH1701)/SK3 current amplitude in control experiments). Black bars show current at 0 mV and grey bars indicate the chord conductance. FIG. 8D) Dose-response effect of the form + of JPH1701 (concentrations: 0 (control), 0.3, 1 and 10 μM). Columns, mean, bars, SEM, (5 cells for racemic mix and 4 cells for + and − forms). FIG. 8E) Histogram showing the % of control specific binding of ^125I-Apamin ([…]) to SKCa channel obtained from membrane homogenates of cerebral cortex by 0.3 and 2 μM JPH1701.
To investigate whether JPH1701 interacts with the apamin binding site, 125I-apamin binding studies were performed.

Test [1] concerns LPA (lysophosphatidic acid) receptor. As to the kind of experiment: LPA receptor binding. Here is the method:
Indeed, the molecular structure of JPH1701 resembles to LPA and PAF. This similarity between the molecular structures prompted us to analyse whether some of the JPH1701's effects were mediated through its binding to the PAF receptor or to the LPA (lysophosphatidic acid) receptor. […] The same results were obtained with LPA receptor (105.3±8.0% and 87.2±4.7% of LPA binding respectively at 0.3 and 2 μM JPH1701). It has been also reported that edelfosine inhibits enzyme activity like protein kinase C or phospholipase C that may explain some of its cytostatic and cytotoxic effects.

In another test the test system is PKCs. The test is described as follows: PKCs activity (alpha, Beta 1, Beta 2, Gamma, Delta, Epsilon, Zeta, Eta, Theta, Iota). In kind it is biochemical. The settings on record: ten PKCs, FIG. 11C. Here is the method: as §3
The target in another test is T2, SK2 (Homo sapiens, UniProt Q9H2S1).
T2 construct: expressed in transfected cells; host or cells: HEK293
As to the kind of experiment: Whole-cell K+ currents in HEK293 cells expressing recombinant SK2. In kind it is cell-based. The conditions noted are these: 10 μM, FIG. 9B. As for the experimental part:
as §1, §2

The test system of the next test is MDA-MB-435s (SK3+). The test is described as follows: Cell migration / 2D motility assay (transwell inserts, wound healing). Type of test: cell-based, human. The source says:
Alternatively, the cell migration inhibitory activity of a compound of formula (I) may be assessed by performing a Wound Healing assay that is disclosed in the examples herein and for which the one skilled in the art may also refer to the article of Rodriguez et al. (2005, Methods Biol Mol, Vol. 294: 23-29). The wound-healing assay is simple, inexpensive, and one of the earliest developed methods to study directional cell migration in vitro. This method mimics cell migration during wound healing in vivo. The basic steps involve creating a “wound” in a cell monolayer, capturing the images at the beginning and at regular intervals during cell migration to close the wound, and comparing the images to quantify the migration rate of the cells. It is particularly suitable for studies on the effects of cell-matrix and cell-cell interactions on cell migration. Cells are seeded in culture dishes and grown until confluence in DMEM supplemented with 10% foetal calf serum. The monolayer is then scratched with a sterile yellow pipette tip. Then, migration of cells to the cleared area is inspected under a microscope. Pictures are taken directly at the time of scratching and after 24 h, so as to determine the ability of the tested cells to migrate.
Wound healing assay: Cells were seeded in culture dishes and grown until confluence in DMEM supplemented with 10% foetal calf serum. The monolayer was scratched with a sterile yellow pipette tip. The migration of cells to the cleared area was inspected under a microscope. Pictures were taken directly at the time of scratching and after 24 h.
At least three independent experiments were each performed in triplicate.

T2 sequence (Q9H2S1 whole entry): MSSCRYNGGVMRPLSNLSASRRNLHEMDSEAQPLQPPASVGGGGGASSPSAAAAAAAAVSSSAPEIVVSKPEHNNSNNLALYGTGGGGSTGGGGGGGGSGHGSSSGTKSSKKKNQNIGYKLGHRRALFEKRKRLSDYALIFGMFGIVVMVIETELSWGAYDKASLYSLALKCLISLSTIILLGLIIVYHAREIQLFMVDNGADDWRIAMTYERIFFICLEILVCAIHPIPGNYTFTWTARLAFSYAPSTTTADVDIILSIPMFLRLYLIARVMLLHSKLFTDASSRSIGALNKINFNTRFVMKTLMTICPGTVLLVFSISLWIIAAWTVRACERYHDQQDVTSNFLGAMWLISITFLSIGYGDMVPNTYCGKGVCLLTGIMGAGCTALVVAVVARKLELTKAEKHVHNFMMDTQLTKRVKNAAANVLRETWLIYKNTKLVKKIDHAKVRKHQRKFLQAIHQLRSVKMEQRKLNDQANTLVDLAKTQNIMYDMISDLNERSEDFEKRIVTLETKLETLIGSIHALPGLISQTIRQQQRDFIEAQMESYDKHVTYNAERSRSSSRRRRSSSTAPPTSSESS
Sequence of PAF receptor (P25105 whole entry): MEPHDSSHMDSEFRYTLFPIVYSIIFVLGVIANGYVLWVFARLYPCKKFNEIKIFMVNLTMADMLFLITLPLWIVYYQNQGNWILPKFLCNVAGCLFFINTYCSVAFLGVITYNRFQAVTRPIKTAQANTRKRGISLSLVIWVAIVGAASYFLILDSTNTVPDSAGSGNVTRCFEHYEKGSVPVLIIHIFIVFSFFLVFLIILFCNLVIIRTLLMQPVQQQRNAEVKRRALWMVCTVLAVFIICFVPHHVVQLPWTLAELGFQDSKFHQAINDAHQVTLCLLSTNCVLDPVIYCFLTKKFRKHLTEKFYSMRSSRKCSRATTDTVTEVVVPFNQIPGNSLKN
T1 sequence (Q92952 whole entry): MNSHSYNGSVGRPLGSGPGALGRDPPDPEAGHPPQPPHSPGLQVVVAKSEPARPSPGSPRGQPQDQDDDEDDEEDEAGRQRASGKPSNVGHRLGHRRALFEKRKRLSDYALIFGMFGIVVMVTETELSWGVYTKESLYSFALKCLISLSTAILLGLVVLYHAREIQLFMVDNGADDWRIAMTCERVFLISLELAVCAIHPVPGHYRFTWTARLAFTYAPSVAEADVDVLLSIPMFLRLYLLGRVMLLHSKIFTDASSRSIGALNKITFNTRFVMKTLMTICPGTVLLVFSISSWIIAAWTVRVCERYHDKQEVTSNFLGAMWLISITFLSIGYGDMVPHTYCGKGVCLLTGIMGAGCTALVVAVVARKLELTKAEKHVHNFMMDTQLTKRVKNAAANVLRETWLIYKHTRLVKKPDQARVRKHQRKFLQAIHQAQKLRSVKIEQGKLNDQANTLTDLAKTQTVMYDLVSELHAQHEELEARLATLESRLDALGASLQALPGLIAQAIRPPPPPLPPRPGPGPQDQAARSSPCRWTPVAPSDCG

For the substance “hexadecyloxy-2-O-methyl-sn-glycerol-lactose [JPH1701]”, the “Effect on SK1 current amplitude at 0 mV” value on SK1 is on record as “significantly reduced”. For the same substance, the “Interaction with C16-PAF binding site of PAF receptor” value at PAF receptor is recorded as “unable to interact”. In the test on SKCa channel, the “Inhibition of 125I-apamin binding” value is reported as “does not inhibit”. Besides, the “% of LPA binding” value in test [1] (0.3 μM) worked out at 105.3±8.0%. The “% of LPA binding” value in test [1] (2 μM) came to 87.2±4.7%. Also, in the test on PKCs, the “Effect on PKC activity” value is “did not affect”. The “Effect on SK2 channels” value on SK2 was “inactive”. Moreover, the “Effect on motility of cells with shRNA random (SK3+) compared with wild type” value with MDA-MB-435s (SK3+) (MDA-MB-435s shRD, FIG. 6E) is “same inhibition effect”. Further, in the test with MDA-MB-435s (SK3+) (MDA-MB-435s wild type, FIG. 6A), the “Concentration from which cell migration is inhibited” value is on record as no less than 10 nM and the “Concentration of maximal effect on cell migration” value is given as “around 1 μM”. For the same substance, the “Cell Migration inhibition of MDA-MB-435s (SK3+), Inhibitory effect” value with MDA-MB-435s (SK3+) (Table 1, concentration 300 nM) was determined as 50%. Moreover, in the test with MDA-MB-435s (SK3+) (Table 2, concentration 300 nM), the “Migration (% of inhibition)” value came out at 50%. Moreover, the “Effect on cell migration” value in the test on MDA-MB-435s (SK3+) (summary of table 2) was “even more effective”.
